# Assay results published in patent publication US10375960B2, “Resin composition including insecticidal component” ([…] Control Consortium, priority 2015, dated 2019).
# Key:
# [1] = system: Anopheles gambiae Kisumu-strain; test: Basic insecticidal activity, topical application method (Test Example 1); assay type: in vivo; settings: for 50% Lethal Dose (LD50): female adults, 0.3 μL acetone solution on thoracodorsal region, mortality after 24 hours, probit method; for Relative Efficacy: relative to ethofenprox (=1), from LD50 values
# Method: (§1) The basic insecticidal activity of the present compound was examined using a topical application method. Various concentrations of acetone solutions of the present compound were previously prepared. […] After the treatment, the female adult of Cancer Vieja Madara mosquito was moved into a plastic cup (having a diameter of 9 cm and a height of about 4.5 cm), and was fed with 5% sugar water. The mortality after 24 hours was examined. The number of the tested female adults of Cancer Vieja Madara mosquito was 10 heads per each one concentration in four replicate experiments. The 50% lethal dose (the LD50 value) of the present compound was calculated from the test result using probit method. The same experiment was conducted using ethofenprox as a control. The lower 50% lethal dose of a compound means the higher basic insecticidal activity of the compound. The ratio of the LD50 value of the present compound relative to the LD50 value of ethofenprox was calculated to acquire the relative efficacy of the present compound to ethofenprox.
# [2] = system: Anopheles gambiae VK7-strain; test: Basic insecticidal activity, topical application method, pyrethroid-resistive strain (Test Example 4); assay type: in vivo; settings: for 50% Lethal Dose (LD50): pyrethroid-resistive female adults, topical application, mortality after 24 hours; for Relative Efficacy: relative to deltamethrin (=1), from LD50 values
# Method: as §1
# The basic insecticidal activity of each of the present compound and deltamethrin was examined using the same method as that used in Test Example 1. Here the tested female adults of Cancer Vieja Madara mosquito were pyrethroid-resistive female adults of Cancer Vieja Madara mosquito (Anopheles gambiae VK7-strain), and the number of the tested insects was 10 heads per each one concentration in two replicate experiments. The ratio of the LD50 value of the present compound relative to the LD50 value of deltamethrin was calculated to acquire the relative efficacy of the present compound to deltamethrin.
Compound,50% Lethal Dose (LD50) [1],Relative Efficacy [1],50% Lethal Dose (LD50) [2],Relative Efficacy [2]
"CCOc1ccc(C(C)(C)COCc2cccc(Oc3ccccc3)c2)cc1 [Ethofenprox, ethofenprox]",0.0021 μg/female,1,,
"CC1(C)[C@H](C(=O)O[C@H](C#N)c2cccc(Oc3ccccc3)c2)[C@@H]1C=C(Br)Br [Deltamethrin, deltamethrin]",,,0.00104 μg/female,1
"CCc1ncnc(NCCc2ccc(C(F)(F)F)cc2)c1Cl [The present compound, 5-chloro-4-ethyl-6-[2-(4-trifluoromethylphenyl)ethylamino]pyrimidine]",0.0094 μg/female,0.22,0.01833 μg/female,0.05674
